Data from patent publication US9925166B2, “Methods of treating an overweight or obese subject” (Zafgen, Inc., priority 2008, dated 2018).

Tested on: diet-induced obese mice
Assay: Percent fat change and lean mass change by NMR in diet-induced obese mice, 28 days (Example 6)
Format: in vivo, C57BL6J mice
Procedure: Mice were first divided into three groups, a control group, a diet-induced obese group, and a lean group. For the diet-induced obese group, C57BL6J mice maintained prior to and during the study on a diet containing 40% fat on a kilocalorie basis were further divided into two groups. For the lean group, C57BL6J mice were maintained on a diet containing 4% by weight fat prior to and during the study. Each of the groups was subsequently divided as described below.
The lean group was administered 1% DMSO vehicle for 28 days. Percent fat change and percent lean mass change from baseline were determined by NMR after 28 days.

SMILES: CO[C@@H]1[C@H](OC(=O)/C=C/C=C/C=C/C=C/C(=O)O)CC[C@]2(CO2)[C@H]1[C@@]1(C)O[C@@H]1CC=C(C)C [fumagillin]
- weight loss (0.3 mg/kg/day oral gavage): lost significant amounts of weight
- weight loss (1.0 mg/kg/day oral gavage): losing a greater amount of weight
- loss of lean body mass (NMR) (0.3 or 1.0 mg/kg/day oral gavage): without resulting in substantial loss of lean body mass
